Assay results as given in patent US11110082B2, “Tyrosine kinase inhibitors” (Rigel Pharmaceuticals, Inc., priority 2016, dated 2021).
pEC50: −log10 of the molar value.

Target: T1, MerTK (Homo sapiens, UniProt Q12866)
T1 construct: Seed HUVECs (10K cells/well) in EBM-2 complete media; host or cells: HUVEC (primary human umbilical vein endothelial cells)
T1 sequence (Q12866 21-999): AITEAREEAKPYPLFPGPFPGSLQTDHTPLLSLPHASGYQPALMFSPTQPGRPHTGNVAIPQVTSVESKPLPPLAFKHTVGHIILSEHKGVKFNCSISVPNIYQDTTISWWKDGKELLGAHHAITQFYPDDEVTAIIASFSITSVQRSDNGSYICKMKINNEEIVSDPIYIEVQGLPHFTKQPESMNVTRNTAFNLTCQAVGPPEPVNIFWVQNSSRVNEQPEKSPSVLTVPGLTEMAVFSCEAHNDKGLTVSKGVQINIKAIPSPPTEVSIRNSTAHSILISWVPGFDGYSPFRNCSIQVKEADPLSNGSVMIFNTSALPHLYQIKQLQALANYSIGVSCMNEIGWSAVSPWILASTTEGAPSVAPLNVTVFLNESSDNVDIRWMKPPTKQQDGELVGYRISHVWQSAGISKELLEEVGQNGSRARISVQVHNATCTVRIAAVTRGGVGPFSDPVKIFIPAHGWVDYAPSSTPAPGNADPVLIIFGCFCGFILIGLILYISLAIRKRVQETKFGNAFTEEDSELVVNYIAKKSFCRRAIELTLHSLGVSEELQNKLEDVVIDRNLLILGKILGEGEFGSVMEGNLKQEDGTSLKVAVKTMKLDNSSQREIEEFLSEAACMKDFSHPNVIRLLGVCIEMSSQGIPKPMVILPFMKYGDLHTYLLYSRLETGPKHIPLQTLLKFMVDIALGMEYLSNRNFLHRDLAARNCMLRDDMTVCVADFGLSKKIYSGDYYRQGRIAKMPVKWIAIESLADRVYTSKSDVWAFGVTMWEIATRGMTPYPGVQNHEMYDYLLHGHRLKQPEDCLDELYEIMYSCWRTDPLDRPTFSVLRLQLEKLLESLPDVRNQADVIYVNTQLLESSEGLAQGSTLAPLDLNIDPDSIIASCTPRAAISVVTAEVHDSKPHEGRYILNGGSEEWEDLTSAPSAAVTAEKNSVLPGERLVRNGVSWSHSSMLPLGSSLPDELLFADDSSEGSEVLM
Assay: PAKT HTRF-HUVEC assay (pAkt Ser473 HTRF after anti-human MerTK-XL stimulation)
Format: cell-based
Details: HUVEC cells, 1 hour compound, stimulated with anti-human MerTK-XL 1 ug/mL for 10 minutes, read-out: inhibition of MerTK
Description: Example 4: PAKT HTRF-HUVEC Assay Phospho Akt (Ser473) Assay kit-10,000 tests (Cisbio US, 64[…]) HUVEC cells (Lonza, CC-2519) Anti-human MerTK antibody (Clone 125518) (R&D Systems, MAB8912) Method Seed HUVECs (10K cells/well) in EBM-2 complete media (EBM-2 basal medium plus EGM-2 BulletKit supplements) overnight at 37° C., 5% CO2 in Costar 96-well white clear-bottom plates. Remove culture media and starve cells for 3-4 hours in 50 μL/well EBM-2 basal medium. Perform serial dilution of compounds in DMSO from 2.5 mM in 4-fold dilutions, and then dilute 1:125 in EBM-2 basal media. Mix 50 μL/well 2x compounds with 50 μL/well HUVECs in duplicate in Costar 96-well white clear-bottom plates. Incubate plates for 1 hour at 37° C., 5% CO2. Cross-link anti-human MerTK antibody to Biotin-SP-conjugated anti-mouse IgG antibody (1:1) to give final concentrations of 5 ug/mL of anti-human MerTK-XL. Stimulate HUVECs with 25 μL/well 5x anti-human MerTK-XL to give final concentrations of 1 ug/mL for 10 minutes at 37° C., 5% CO2. Completely remove media and lyse HUVECs with 40 uL/WELL per well of Cisbio HTRF 1× lysis buffer. Performed pAkt(Ser473) HTRF assay in ProxiPlate-384 Plus, white 384-shallow well microplate according to the vendor protocol and read plates with a SpectralMax Paradigm plate reader. Enter the HTRF values into Athena (Rigel) for curve fitting, EC50 calculation, and database storage.

| Compound | pEC50 |
| --- | --- |
| CCOC1CCN(Cc2ccc3c(c2)c(=O)n(C2CCC(O)CC2)c2nc(NCC4CC4)ncc32)CC1 (stereo not drawn) [Compound 144, 3-((cyclopropylmethyl)amino)-8-((4-ethoxypiperidin-1-yl)methyl)-5-((1s,4s)-4-hydroxycyclohexyl)pyrimido[4,5-c]isoquinolin-6(5H)-one] | 7.24 |
| O=c1c2cc(CN3CCS(=O)(=O)CC3)ccc2c2cnc(NCC3CC3)nc2n1[C@H]1CC[C@H](O)CC1 [Compound 49, trans-3-((Cyclopropylmethyl)amino)-8-((1,1-dioxidothiomorpholino)methyl)-5-(4-hydroxycyclohexyl)pyrimido [4,5-c]isoquinolin-6(5H)-one] | 6.66 |
| CCOC(=O)C1CCN(Cc2ccc3c(c2)c(=O)n(C2CCC(O)CC2)c2nc(NCC4CC4)ncc32)CC1 (stereo not drawn) [Compound 161] | 7.59 |
| CCCCNc1ncc2c3ccc(N4C[C@@H](C)N(C)C[C@@H]4C)cc3c(=O)n(C3CCC(=O)CC3)c2n1 [Compound 79, 3-(Butylamino)-5-(4-oxocyclohexyl)-8-((2S,5R)-2,4,5-trimethylpiperazin-1-yl)pyrimido[4,5-c]isoquinolin-6(5H)-one] | 6.81 |
| CCCCNc1ncc2c3ccc(CN4CCN(C)CC4)cc3c(=O)n(CC3CCC(N)CC3)c2n1 (stereo not drawn) [Compound 10, 5-((4-Aminocyclohexyl)methyl)-3-(butylamino)-8-((4-methylpiperazin-1-yl)methyl)pyrimido[4,5-c]isoquinolin-6(5H)-one] | 6.84 |
| CCC(F)(F)CNc1ncc2c3ccccc3c(=O)n([C@H]3CC[C@H](O)CC3)c2n1 [Compound 119, trans-3-((2,2-difluorobutyl)amino)-5-(4-hydroxycyclohexyl)pyrimido [4,5-c]isoquinolin-6(5H)-one] | 4.80 |
| O=c1c2cc(CN3CCC(c4ccncc4)CC3)ccc2c2cnc(NC3CCC3)nc2n1[C@H]1CC[C@H](O)CC1 [Compound 227, trans-3-(Cyclobutylamino)-5-(4-hydroxycyclohexyl)-8-((4-(pyridin-4-yl)piperidin-1-yl)methyl)pyrimido[4,5-c]isoquinolin-6(5H)-one] | 8.62 |
| CCCCNc1ncc2c3ccc(CN4CCN(C)CC4)cc3c(=O)n([C@H]3CCC[C@H](O)CCC3)c2n1 [Compound 127, 3-(Butylamino)-5-((1r,5r)-5-hydroxycyclooctyl)-8-((4-methylpiperazin-1-yl)methyl)pyrimido[4,5-c]isoquinolin-6(5H)-one] | 7.05 |
| CCC1(CNc2ncc3c4ccc(CN5CCOCC5)cc4c(=O)n([C@H]4CC[C@H](O)CC4)c3n2)CCC1 [Compound 19, trans-3-(((1-Ethylcyclobutyl)methyl)amino)-5-(4-hydroxycyclohexyl)-8-(morpholinomethyl)pyrimido [4,5-c]isoquinolin-6(5H)-one] | 6.16 |
| CCCCNc1ncc2c3ccc(CN4CCN(C)CC4)cc3c(=O)n([C@H]3CC[C@H](NC(C)=O)C3)c2n1 [Compound 233, N-((1S,3S)-3-(3-(butylamino)-8-((4-methylpiperazin-1-yl)methyl)-6-oxopyrimido[4,5-c]isoquinolin-5(6H)-yl)cyclopentyl)acetamide] | 6.29 |
| O=c1c2cc(CN3CC[N@+]4([O-])CC[C@@H]3CC4)ccc2c2cnc(NCC3CC3)nc2n1C1CCC(O)CC1 (relative stereo) [Compound 51, trans-4-((3-((Cyclopropylmethyl)amino)-5-(4-hydroxycyclohexyl)-6-oxo-5,6-dihydropyrimido[4,5-c]isoquinolin-8-yl)methyl)-1,4-diazabicyclo[3.2.2]nonane 1-oxide] | 4.92 |
| CN1CCN(Cc2ccc3c(c2)c(=O)n([C@H]2CC[C@H](NC(=O)OC(C)(C)C)CC2)c2nc(NCC4CC4)ncc32)CC1 [Compound 184, trans-tert-Butyl (4-(3-((cyclopropylmethyl)amino)-8-((4-methylpiperazin-1-yl)methyl)-6-oxopyrimido[4,5-c]isoquinolin-5(6H)-yl)cyclohexyl)carbamate] | 5.29 |
| O=C(O)C1CCN(Cc2ccc3c(c2)c(=O)n([C@H]2CC[C@H](O)CC2)c2nc(NCC4CC4)ncc32)CC1 [Compound 200, trans-1-((3-((Cyclopropylmethyl)amino)-5-(4-hydroxycyclohexyl)-6-oxo-5,6-dihydropyrimido[4,5-c]isoquinolin-8-yl)methyl)piperidine-4-carboxylic acid] | 4.95 |
| CCCCNc1ncc2c3ccc(N4CCN(C(C)C)CC4)cc3c(=O)n([C@H]3CC[C@H](O)CC3)c2n1 [Compound 69, trans-3-(Butylamino)-5-(4-hydroxycyclohexyl)-8-(4-isopropylpiperazin-1-yl)pyrimido[4,5-c]isoquinolin-6(5H)-one] | 7.69 |
| CC(C)N1CCN(Cc2ccc3c(c2)c(=O)n([C@H]2CC[C@](C)(O)CC2)c2nc(NCC4CC4)ncc32)CC1 [Compound 31, trans-3-((Cyclopropylmethyl)amino)-5-(4-hydroxy-4-methylcyclohexyl)-8-((4-isopropylpiperazin-1-yl)methyl)pyrimido[4,5-c]isoquinolin-6(5H)-one] | 7.90 |
| CN1CCN(Cc2ccc3c(c2)c(=O)n(C2CCOCC2)c2nc(NCC4CC4)ncc32)CC1 [Compound 133] | 5.78 |
| O=c1c2cc(CN3CCN(c4ccncc4)CC3)ccc2c2cnc(NCCC3CC3)nc2n1[C@H]1CC[C@H](O)CC1 [Compound 222, trans-3-((2-Cyclopropylethyl)amino)-5-(4-hydroxycyclohexyl)-8-((4-(pyridin-4-yl)piperazin-1-yl)methyl)pyrimido[4,5-c]isoquinolin-6(5H)-one] | 7.84 |
| O=c1c2cc(CN3CCN(c4ccncc4)CC3)ccc2c2cnc(NC3CC(F)(F)C3)nc2n1[C@H]1CC[C@H](O)CC1 [Compound 212, trans-3-((3,3-Difluorocyclobutyl)amino)-5-(4-hydroxycyclohexyl)-8-((4-(pyridin-4-yl)piperazin-1-yl)methyl)pyrimido[4,5-c]isoquinolin-6(5H)-one] | 7.20 |
| CN1CCN(c2ccc3c(c2)c(=O)n([C@H]2CC[C@H](O)CC2)c2nc(NCCC4CC4)ncc32)CC1 [Compound 96, trans-3-((2-Cyclopropylethyl)amino)-5-(4-hydroxycyclohexyl)-8-(4-methylpiperazin-1-yl)pyrimido[4,5-c]isoquinolin-6(5H)-one] | 7.38 |
| CC(C)N1CCN(c2ccc3c(c2)c(=O)n([C@H]2CC[C@H](O)CC2)c2nc(NCC4CC4)ncc32)CC1 [Compound 176] | 7.01 |
| O=c1c2cc(CN3CC[N+]4([O-])CCC3CC4)ccc2c2cnc(NCC3CC3)nc2n1[C@H]1CC[C@H](O)CC1 [Compound 162] | 4.92 |
| CCC(F)(F)CNc1ncc2c3ccc(CN4CCC5(CC4)COC5)cc3c(=O)n([C@H]3CC[C@H](O)CC3)c2n1 [Compound 197, trans-8-((2-Oxa-7-azaspiro[3.5]nonan-7-yl)methyl)-3-((2,2-difluorobutyl)amino)-5-(4-hydroxycyclohexyl)pyrimido[4,5-c]isoquinolin-6(5H)-one] | 7.01 |
| O=c1c2cc(N3CCN(CC(F)(F)F)CC3)ccc2c2cnc(NCC3CC3)nc2n1[C@H]1CC[C@H](O)CC1 [Compound 168] | 6.54 |
| CCCCNc1ncc2c3ccc(CN4CCN(C)CC4)cc3c(=O)n([C@H]3CC[C@H](C(=O)NCC4CC4)CC3)c2n1 [Compound 141, trans-4-(3-(Butylamino)-8-((4-methylpiperazin-1-yl)methyl)-6-oxopyrimido[4,5-c]isoquinolin-5(6H)-yl)-N-(cyclopropylmethyl)cyclohexane-1-carboxamide] | 6.73 |
